Laboratory results published in patent US9925263B2, “Liquid pharmaceutical formulations for injection comprising procaine and uses thereof” (EAGLE BIOLOGICS, INC., priority 2013, dated 2018).
Counter-ions that a name gives are not always drawn. One block for each molecule: values may come before it.

Experiments:
biosimilar ERBITUX® = test: Viscosity of aqueous solutions of biosimilar ERBITUX® with viscosity-lowering agents; settings: for Fold Reduction: vs phosphate buffer
biosimilar RITUXAN® = test: Viscosity of aqueous solutions of biosimilar RITUXAN® with viscosity-lowering agents; settings: 25° C.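 Further: absolute viscosity of aqueous antibody solutions determined by microfluidic viscometry (mVROC chip, 50 micron channel) at several flow rates after 5 min equilibration, mean of at least three readings.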
Procedure: All viscosities of well-mixed aqueous mAb solutions were measured using either a mVROC microfluidic viscometer (RheoSense) or a DV2T cone and plate viscometer (Brookfield; “C & P”) after a 5 minute equilibration at 25° C. […] The mVROC viscometer was equipped with an “A” or “B” chip, each manufactured with a 50 micron channel. Typically, 0.10 mL of protein solution was back-loaded into a gastight microlab instrument syringe (Hamilton; 100 μL), affixed to the chip, and measured at multiple flow rates, approximately 20%, 40%, and 60% of the maximum pressure for each chip. […] An average absolute viscosity and standard deviation was then calculated from at least these three measurements. The C & P viscometer was equipped with a CPE40 or CPE52 spindle (cone angle of 0.8° and 3.0°, respectively) and 0.50 mL samples were measured at multiple shear rates between 2 and 400 s^−1. […] An extrapolated zero-shear viscosity was then determined from a plot of dynamic viscosity versus shear rate for the samples measured on a DV2T cone and plate viscometer. The extrapolated zero-shear viscosities reported are the average and standard deviation of at least three measurements.
Viscosities were measured using a RheoSense mVROC microfluidic viscometer equipped with an “A” or “B” chip.

biosimilar AVASTIN® = test: Viscosity of aqueous solutions of biosimilar AVASTIN® with viscosity-lowering agents; format: physicochemical
Procedure: (unless otherwise indicated).
The protein was formulated to contain either 0.25 M phosphate buffer or 0.25 M CSAL.
Subsequently, the appropriate amount of viscosity-lowering agent was added to result in a final viscosity-lowering agent concentration of 0.15-0.35 M upon reconstitution.
The viscosity-lowering agent(s) were added in an amount sufficient to give concentration upon reconstitution as specified below. In cases of combinations of agents, the concentration of each component is 0.15 M. The protein solutions were then freeze-dried.

[1] = 222 ± 5 mg/mL mAb, pH 7.0, 0.25M agent, 25° C.
[2] = 225 ± 5 mg/mL mAb, pH 7.0, 0.25M agent, 20° C.
[3] = 225 ± 5 mg/mL mAb, pH 7.0, 0.25M agent, 25° C.
[4] = 225 ± 5 mg/mL mAb, pH 7.0, 0.25M agent, 30° C.
[5] = 229 mg/mL mAb, […] agent, pH 7.0, 25° C., microfluidic
[6] = 200 ± 5 mg/mL mAb, pH 7.0, 25° C., [Salt] 0.25 M of anion, C & P viscometer
[7] = 200 ± 5 mg/mL mAb, pH 7.0, 25° C., [Salt] […] of anion, C & P viscometer
[8] = 221 mg/mL mAb, […] agent, pH 7.0, 25° C., microfluidic
[9] = 225 mg/mL mAb, agent […], 25° C.
[10] = 206 mg/mL mAb, agent […], 25° C.
[11] = 228 ± 5 mg/mL mAb, agent 0.25 M, 25° C., pH 7.0
[12] = 200 ± 5 mg/mL mAb, pH 7.0, 25° C., [Salt] 0.35 M of anion, C & P viscometer
[13] = 214 mg/mL mAb, agent […], 25° C.

Viscosity (biosimilar RITUXAN®; 207 mg/mL mAb, […] agent): 149 ± 13 cP
Viscosity (biosimilar AVASTIN®; [8]): 151 ± 5 cP
Viscosity (biosimilar AVASTIN®; 221 mg/mL mAb, […] agent, pH 7.0, 25° C., microfluidic, listed as Glucuronic acid-Tris): 151 ± 5.0 cP
Molecule: NC(CO)(CO)CO.O=C[C@H](O)[C@@H](O)[C@H](O)[C@H](O)C(=O)O [Glucuronic acid-tris]

Viscosity (biosimilar ERBITUX®; 186 mg/mL mAb, […] agent, 25° C.): 66.7 ± 1.0 cP
Molecule: COc1c(N2C[C@@H]3CCCN[C@@H]3C2)c(F)cc2c(=O)c(C(=O)O)cn(C3CC3)c12 [Moxifloxacin HCl, reference compound]

Viscosity (biosimilar AVASTIN®; [9]): 131 ± 4 cP
Viscosity (biosimilar ERBITUX®; 237 mg/mL mAb, 0.10M agent, 25° C.): 492 ± 9 cP
Molecule: Cc1cc2nc3c(=O)[nH]c(=O)nc-3n(C[C@H](O)[C@H](O)[C@H](O)COP(=O)([O-])O)c2cc1C.[Na+] [Riboflavin-5-phosphate]

Viscosity (biosimilar AVASTIN®; [8]): 68.5 ± 1.1 cP
Molecule: Cl.[Cl-].c1cc[n+](-c2ccncc2)cc1 [N-(4-Pyridiyl)pyridinium Cl HCl]

Viscosity (biosimilar RITUXAN®; 194 mg/mL mAb, […] agent): 127 ± 2 cP
Viscosity (biosimilar AVASTIN®; [10]): 197 ± 5 cP
Molecule: CCN1CCN(C(=O)N[C@@H](C(=O)N[C@@H]2C(=O)N3[C@@H]2SC(C)(C)[C@@H]3C(=O)O)c2ccccc2)C(=O)C1=O [Piperacillin sodium salt, reference compound]

Viscosity (biosimilar AVASTIN®; 212 mg/mL mAb, agent 0.25M, 25° C.): 93.2 ± 2.7 cP
Molecule: CNS(=O)(=O)Cc1ccc2[nH]cc(CCN(C)C)c2c1 [Sumatriptan Succinate, reference compound]

Viscosity (biosimilar AVASTIN®; 227 mg/mL mAb, agent […], 25° C.): 107 ± 0 cP
Molecule: Cc1ncc(CO)c(CO)c1O [Pyridoxine]

Viscosity (biosimilar AVASTIN®; [6]): 85.5 ± 5.2 cP
Viscosity (biosimilar AVASTIN®; [12]): 65.6 ± 1.6 cP
Molecule: diCSA cadaverine

Viscosity (biosimilar ERBITUX®; 188 mg/mL mAb, […] agent, 25° C.): 119 ± 2 cP
Molecule: O=C1NC(c2ccccc2)(c2ccccc2)C(=O)N1COP(=O)(O)O [Fosphenytoin disodium salt, reference compound]

Viscosity (biosimilar RITUXAN®; 194 mg/mL mAb, […] agent): 39.3 ± 0.4 cP
Viscosity (biosimilar AVASTIN®; 230 mg/mL mAb, agent […], 25° C.): 64.4 ± 1.6 cP
Molecule: CCN(CC)CCNC(=O)c1cc(Cl)c(N)cc1OC [Metoclopramide HCl, reference compound]

Viscosity (biosimilar ERBITUX®; 194 mg/mL mAb, […] agent, 25° C.): 166 ± 8 cP
Molecule: CO[C@@]1(NC(=O)Cc2cccs2)C(=O)N2C(C(=O)O)=C(COC(N)=O)CS[C@@H]21 [Cefoxitin sodium salt, reference compound]

Viscosity (biosimilar AVASTIN®; 201 mg/mL mAb, agent […], 25° C.): 108 ± 1 cP
Viscosity (biosimilar ERBITUX®; 183 mg/mL mAb, […] agent, 25° C.): 54.1 ± 2.9 cP
Molecule: CNC[C@H](O)c1cccc(O)c1 [Phenylephrine HCl, reference compound]

Viscosity (biosimilar RITUXAN®; 191 mg/mL mAb, […] agent): 80.3 ± 16.0 cP
Viscosity (biosimilar AVASTIN®; 219 mg/mL mAb, […] agent, pH 7.0, 25° C., microfluidic): >150 cP
Molecule: Ethane disulfonate-diTris-2Na

Viscosity (biosimilar RITUXAN®; 191 mg/mL mAb, […] agent): 50.0 ± 3.8 cP
Viscosity (biosimilar AVASTIN®; [13]): 90.5 ± 1.8 cP
Molecule: HEPES-Tris

Viscosity (biosimilar AVASTIN®; [13]): 113 ± 1 cP
Molecule: CC(=O)[N-]S(=O)(=O)c1ccc(N)cc1.[Na+] [Sulfacetamide-Na, reference compound]

Viscosity (biosimilar AVASTIN®; 210 mg/mL mAb, agent 0.02M, 25° C.): 121 ± 2 cP
Viscosity (biosimilar ERBITUX®; 189 mg/mL mAb, 0.02M agent, 25° C.): 284 ± 5 cP
Molecule: Nc1ccn(C[C@@H](CO)OCP(=O)(O)O)c(=O)n1 [Cidofovir hydrate, reference compound]

Viscosity (biosimilar RITUXAN®; 199 mg/mL mAb, […] agent): 126 ± 3.3 cP
Viscosity (biosimilar AVASTIN®; 211 mg/mL mAb, agent […], 25° C.): 121 ± 6 cP
Molecule: O=P1([O-])OP(=O)([O-])OP(=O)([O-])O1.[Na+].[Na+].[Na+] [Trimetaphosphate-3Na]

Viscosity (biosimilar ERBITUX®; 232 mg/mL mAb, […] agent, 25° C.): 292 ± 10 cP
Molecule: NC(=O)c1cccnc1 [Nicotinamide]

Further lines, the molecule ahead of its results:

Molecule: naphthalenesulfonic acid arginine [NSAA]
Viscosity (biosimilar ERBITUX®; [1]): 69.4 ± 0.6 cP
Viscosity (biosimilar ERBITUX®; [2]): 103 ± 0 cP
Viscosity (biosimilar ERBITUX®; [3]): 69.4 ± 0.6 cP
Viscosity (biosimilar ERBITUX®; [4]): 60.9 ± 4.3 cP
Fold Reduction (biosimilar ERBITUX®; [1]): 16.3 fold

Molecule: Cc1nnc(SCC2=C(C(=O)O)N3C(=O)[C@@H](NC(=O)Cn4cnnn4)[C@H]3SC2)s1 [Cefazolin, reference compound]
Viscosity (biosimilar RITUXAN®; 206 mg/mL mAb, […] agent): 65.1 ± 1.8 cP
Viscosity (biosimilar AVASTIN®; [5]): 60.6 ± 1 cP

Molecule: CC1(C)C2CCC1(CS(=O)(=O)O)C(=O)C2.N=C(N)NOCC[C@H](N)C(=O)O (stereo not drawn) [CSA canavanine]
Viscosity (biosimilar AVASTIN®; [6]): 75.6 ± 3.0 cP
Viscosity (biosimilar AVASTIN®; [7]): 60.5 ± 0.6 cP

Molecule: Cc1nccn1CCCN.Cl.Cl [APMI*2HCl, 1-(3-aminopropyl)-2-methyl-1H-imidazole dihydrochloride]
Viscosity-lowering effect as a function of agent concentration (biosimilar AVASTIN®; 0.10 vs 0.25 M APMI*2HCl, FIG. 7): viscosity-lowering effect was increased

Molecule: CCN(CC)CC(=O)Nc1c(C)cccc1C [Lidocaine HCl, reference compound]
Viscosity (biosimilar AVASTIN®; 218 mg/mL mAb, agent […], 25° C.): 147 ± 15 cP
Viscosity (biosimilar AVASTIN®; 237 mg/mL mAb, agent […], 25° C.): 97.3 ± 1.8 cP
Viscosity (biosimilar ERBITUX®; 223 mg/mL mAb, […] agent, 25° C.): 33.8 ± 0.4 cP

Molecule: CSA-1-o-tolybiguanide
Viscosity (biosimilar RITUXAN®; 190 mg/mL mAb, […] agent): 40.4 ± 1.9 cP
Viscosity (biosimilar AVASTIN®; 228 mg/mL mAb, agent […], 25° C.): 121 ± 1 cP

Molecule: CC1(C)C2CCC1(CS(=O)(=O)O)C(=O)C2.Nc1ccncc1 (stereo not drawn) [CSA-4-aminopyridine]
Viscosity (biosimilar RITUXAN®; 195 mg/mL mAb, […] agent): 47.0 ± 1.4 cP
Viscosity (biosimilar RITUXAN®; 233 mg/mL mAb, […] agent): 66.5 ± 0.8 cP
Viscosity (biosimilar AVASTIN®; [5]): 86.4 ± 1.1 cP

Molecule: CS(=O)(=O)O.N=C(N)NCCC[C@H](N)C(=O)O [MSA arginine]
Viscosity (biosimilar AVASTIN®; [6]): 93.1 ± 0.9 cP

Molecule: N=C(N)NCCC[C@H](N)C(=O)O.O=C(O)c1ccccc1 [Benzoic acid arginine]
Viscosity (biosimilar AVASTIN®; [6]): 51.4 ± 0.5 cP
Viscosity (biosimilar AVASTIN®; [7]): 52.2 ± 0.5 cP

Molecule: CSA-Na-aminocyclohexane carboxylic acid
Viscosity (biosimilar RITUXAN®; 191 mg/mL mAb, […] agent): 61.3 ± 2.5 cP
Viscosity (biosimilar AVASTIN®; [9]): 69.2 ± 3.7 cP

Molecule: C[C@H]1[C@H](NC(=O)/C(=N\OC(C)(C)C(=O)O)c2csc(N)n2)C(=O)N1S(=O)(=O)O [Aztreonam, reference compound]
Viscosity (biosimilar ERBITUX®; 179 mg/mL mAb, 0.02M agent, 25° C.): 256 ± 4 cP

Molecule: Chlorotheophylline arginine
Viscosity (biosimilar AVASTIN®; [6]): 104.5 ± 6.5 cP

Molecule: CSA carnitine
Viscosity (biosimilar AVASTIN®; [6]): 72.4 ± 1.7 cP

Molecule: Ethandisulfonate diarginine
Viscosity (biosimilar AVASTIN®; [6]): 105 ± 4 cP
Viscosity (biosimilar AVASTIN®; [7]): 77.1 ± 0.3 cP

Molecule: [Cl-].[Na+] [NaCl, reference compound]
Viscosity (biosimilar AVASTIN®; [6]): 121 ± 8 cP

Molecule: CSA 1-(3-aminopropyl)-2-methyl-1H-imidazole [CSAAPMI-2HCl]
Viscosity (biosimilar AVASTIN®; 210 mg/mL mAb, 0.25 M agent, 25° C., pH 7.0): 40.9 ± 0.5 cP
Viscosity (biosimilar AVASTIN®; [11]): 71.8 ± 3.2 cP

Molecule: NCCCC[C@H](N)C(=O)O.O=S(=O)(O)c1ccccc1 [BSAL, benzenesulfonic acid lysine]
Viscosity (biosimilar AVASTIN®; 230 ± 5 mg/mL mAb, pH 7.0, […], 20° C.): 395 ± 3 cP
Viscosity (biosimilar AVASTIN®; 230 ± 5 mg/mL mAb, pH 7.0, […], 25° C.): 227 ± 5 cP
Viscosity (biosimilar ERBITUX®; [1]): 126 ± 1 cP
Viscosity (biosimilar ERBITUX®; [2]): 193 ± 0 cP
Viscosity (biosimilar ERBITUX®; [3]): 126 ± 1 cP
Viscosity (biosimilar ERBITUX®; [4]): 89.8 ± 0.8 cP

Molecule: Toluenesulfonic acid lysine
Viscosity (biosimilar AVASTIN®; [6]): 118 ± 1 cP

Molecule: Sulfosalicylic acid dilysine
Viscosity (biosimilar AVASTIN®; [11]): 73.4 ± 0.4 cP

Molecule: CSA betaine
Viscosity (biosimilar AVASTIN®; [6]): 66.0 ± 0.7 cP

Molecule: CC1(C)C2CCC1(CS(=O)(=O)O)C(=O)C2.OCCN(CCO)CCO (stereo not drawn) [CSA Triethanolamine]
Viscosity (biosimilar AVASTIN®; 238 mg/mL mAb, agent […], 25° C.): 144 ± 1 cP

Molecule: CSA-Na-Creatinine
Viscosity (biosimilar RITUXAN®; 190 mg/mL mAb, 0.3M agent): 33.3 ± 1.1 cP
Viscosity (biosimilar AVASTIN®; 202 mg/mL mAb, agent […], 25° C.): 38.4 ± 0.9 cP

Molecule: CSA-Tris
Viscosity (biosimilar RITUXAN®; 191 mg/mL mAb, […] agent): 59.1 ± 0.7 cP
Viscosity (biosimilar AVASTIN®; 197 mg/mL mAb, agent […], 25° C.): 50 ± 1 cP
Viscosity (biosimilar AVASTIN®; [10]): 64.4 ± 1.4 cP

Molecule: NCCCC[C@H](N)C(=O)O [Lysine•HCl, reference compound]
Viscosity (biosimilar AVASTIN®; [6]): 137 ± 2 cP
Viscosity (biosimilar ERBITUX®; [1]): 128 ± 2 cP
Fold Reduction (biosimilar ERBITUX®; [1]): 8.8 fold

Molecule: CSAthiamine-2NaCl
Viscosity (biosimilar AVASTIN®; 228 ± 5 mg/mL mAb, agent […], 25° C., pH 7.0): 83.7 ± 2.2 cP
Viscosity reduction (biosimilar AVASTIN®; ~230 mg/mL mAb, vs PB, Table 12): approximately 5 fold

Molecule: Toluenesulfonic acid arginine
Viscosity (biosimilar AVASTIN®; [6]): 159 ± 5 cP

Molecule: CSA dimethylpiperazine
Viscosity (biosimilar AVASTIN®; [6]): 47.4 ± 1.3 cP
Viscosity (biosimilar AVASTIN®; [12]): 51.7 ± 0.9 cP

Molecule: ClC=CC[N+]12CN3CN(CN(C3)C1)C2.[Cl-] [Quaternium 15]
Viscosity (biosimilar RITUXAN®; 221 mg/mL mAb, […] agent): 135 ± 5 cP
